Measurements published in patent US11351164B2, “Inhibitors of indoleamine 2,3-dioxygenase and methods of their use” (BRISTOL-MYERS SQUIBB COMPANY, priority 2016, dated 2022).

Target: T1, human IDO1 (Homo sapiens, UniProt P14902)
T1 construct: expressed in transfected cells
Experiment: IDO inhibition assay in HEK293 cells stably expressing human IDO1 (kynurenine, Ehrlich reagent, absorbance 490 nm)
Type: cell-based
Details: 20 hours incubation, read-out: IDO1 HEK Human IC50
Protocol: HEK293 cells were transfected with a pCDNA-based mammalian expression vector harboring human IDO1 cDNA (NM 002164.2) by electroporation. They were cultured in medium (DMEM with 10% FBS) containing 1 mg/ml G418 for two weeks. Clones of HEK293 cells that stably expressed human IDO1 protein were selected and expanded for IDO inhibition assay. The human IDO1/HEK293 cells were seeded at 10,000 cells per 50 μL per well with RPMI/phenol red free media contains 10% FBS in a 384-well black wall clear bottom tissue culture plate (Matrix Technologies LLC) 100 nL of certain concentration of compound was then added to each well using ECHO liquid handling systems. The cells were incubated for 20 hours in 37° C. incubator with 5% CO2. The compound treatments were stopped by adding trichloroacetic acid (Sigma-Aldrich) to a final concentration at 0.2%. The cell plate was further incubated at 50° C. for 30 minute. The equal volume supernatant ([…]) and 0.2% (w/v) Ehrlich reagent (4-dimethylaminobenzaldehyde, Sigma-Aldrich) in glacial acetic acid were mixed in a new clear bottom 384-well plate. This plate was then incubated at room temperature for 30 minute. The absorbance at 490 nm was measured on Envision plate reader. Compound IC50 values were calculated using the counts of 500 nM of a reference standard treatment as one hundred percent inhibition, and counts of no compound but DMSO treatment as zero percent inhibition.

T1 sequence (P14902 whole entry): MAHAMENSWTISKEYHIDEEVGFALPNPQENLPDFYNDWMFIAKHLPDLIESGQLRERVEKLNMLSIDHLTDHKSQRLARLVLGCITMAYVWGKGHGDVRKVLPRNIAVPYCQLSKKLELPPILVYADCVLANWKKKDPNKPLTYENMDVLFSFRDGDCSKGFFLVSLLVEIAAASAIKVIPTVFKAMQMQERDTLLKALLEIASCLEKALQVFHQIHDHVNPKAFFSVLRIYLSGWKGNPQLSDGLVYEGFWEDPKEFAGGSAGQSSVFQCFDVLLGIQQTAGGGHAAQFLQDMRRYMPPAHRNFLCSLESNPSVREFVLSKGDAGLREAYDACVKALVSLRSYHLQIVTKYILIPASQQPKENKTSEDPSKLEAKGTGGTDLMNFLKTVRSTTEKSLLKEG

Row | SMILES | IC50
1 | CCC(Nc1nnc(-c2ccc(OC)cc2)o1)[C@H]1CC[C@@H](c2ccnc3ccc(F)cc32)CC1 (single isomer, unassigned) [Example 49-2, N-(1-((1s,4s)-4-(6-Fluoroquinolin-4-yl)cyclohexyl)propyl)-5-(4-methoxyphenyl)-1,3,4-oxadiazol-2-amine] | 177 nM
2 | C[C@@H](Nc1nnc(-c2ccc(F)cc2)o1)[C@H]1CC[C@@H](c2ccnc3ccc(F)cc32)CC1 [Example 31, 5-(4-fluorophenyl)-N-((R)-1-((1s,4S)-4-(6-fluoroquinolin-4-yl)cyclohexyl)ethyl)-1,3,4-oxadiazol-2-amine] | 42.7 nM
3 | Cc1ccc(-c2nnc([C@H](C)[C@H]3CC[C@@H](c4ccnc5ccc(F)cc54)CC3)o2)cc1F [Example 16, 2-(3-fluoro-4-methylphenyl)-5-((R)-1-((1s,4S)-4-(6-fluoroquinolin-4-yl)cyclohexyl)ethyl)-1,3,4-oxadiazole] | 2000 nM
4 | COCc1nnc(N[C@H](C)[C@H]2CC[C@@H](c3ccnc4ccc(F)cc43)CC2)o1 [Example 34, N-((R)-1-((1s,4S)-4-(6-fluoroquinolin-4-yl)cyclohexyl)ethyl)-5-(methoxymethyl)-1,3,4-oxadiazol-2-amine] | 38.6 nM
5 | C[C@@H](Nc1nnc(C2CCCCC2)o1)[C@H]1CC[C@@H](c2ccnc3ccc(F)cc32)CC1 [Example 27, 5-Cyclohexyl-N—((R)-1-((1s,4S)-4-(6-fluoroquinolin-4-yl)cyclohexyl)ethyl)-1,3,4-oxadiazol-2-amine] | 9 nM
6 | C[C@@H](c1nnc(-c2ccc(Cl)cc2)o1)[C@H]1CC[C@@H](c2ccnc3ccc(F)cc32)CC1 [Example 4, 2-(4-Chlorophenyl)-5-((R)-1-((1s,4s)-4-(6-fluoroquinolin-4-yl)cyclohexyl)ethyl)-1,3,4-oxadiazole] | 167 nM
7 | CCC(c1nnc(-c2ccc(OC(C)C)cc2)[nH]1)C1CCC(c2ccnc3ccc(F)cc23)CC1 (stereo not drawn) [Example 51, 6-Fluoro-4-(4-(1-(5-(4-isopropoxyphenyl)-4H-1,2,4-triazol-3-yl)propyl)cyclohexyl)quinoline] | 71.1 nM
8 | C[C@@H](Nc1nnc(-c2ccc(-c3nccs3)cc2)o1)[C@H]1CC[C@@H](c2ccnc3ccc(F)cc32)CC1 [Example 35, N-((R)-1-((1s,4S)-4-(6-fluoroquinolin-4-yl)cyclohexyl)ethyl)-5-(4-(thiazol-2-yl)phenyl)-1,3,4-oxadiazol-2-amine] | 1000 nM
9 | C[C@@H](c1nnc(-c2ccc(C#N)cc2)s1)[C@H]1CC[C@@H](c2ccnc3ccc(F)cc32)CC1 [Example 6, 4-(5-((R)-1-((1s,4S)-4-(6-Fluoroquinolin-4-yl)cyclohexyl)ethyl)-1,3,4-thiadiazol-2-yl)benzonitrile] | 37 nM
10 | C[C@@H](c1ncc(-c2ccc(C#N)cc2)o1)[C@H]1CC[C@@H](c2ccnc3ccc(F)cc32)CC1 [Example 46, 4-(2-((R)-1-((1s,4S)-4-(6-Fluoroquinolin-4-yl)cyclohexyl)ethyl)oxazol-5-yl)benzonitrile] | 386 nM
11 | CCC(Nc1nnc(-c2ccc(OC)cc2)o1)[C@H]1CC[C@@H](c2ccnc(F)c2C)CC1 (single isomer, unassigned) [Example 63-2, N-(1-((1s,4s)-4-(2-Fluoro-3-methylpyridin-4-yl)cyclohexyl)propyl)-5-(4-methoxyphenyl)-1,3,4-oxadiazol-2-amine] | 141 nM
12 | C[C@@H](c1ncc(-c2ccc(Cl)cc2)o1)[C@H]1CC[C@@H](c2ccnc3ccc(F)cc32)CC1 [Example 43, 5-(4-Chlorophenyl)-2-((R)-1-((1s,4S)-4-(6-fluoroquinolin-4-yl)cyclohexyl)ethyl)oxazole] | 288 nM
13 | COc1ccc(Nc2nnc([C@H](C)[C@H]3CC[C@@H](c4ccnc5ccc(F)cc54)CC3)[nH]2)cc1 [Example 20, 5-((R)-1-((1s,4s)-4-(6-Fluoroquinolin-4-yl)cyclohexyl)ethyl)-N-(4-methoxyphenyl)-4H-1,2,4-triazol-3-amine] | 135 nM
14 | COc1ccc(-c2nnc(N[C@H](C)[C@H]3CC[C@@H](c4ccnc5ccc(F)cc54)CC3)o2)cn1 [Example 33, N-((R)-1-((1s,4S)-4-(6-fluoroquinolin-4-yl)cyclohexyl)ethyl)-5-(6-methoxypyridin-3-yl)-1,3,4-oxadiazol-2-amine] | 64.1 nM
15 | C[C@@H](c1nnc(Nc2ccc(F)cc2)s1)[C@H]1CC[C@@H](c2ccnc3ccc(F)cc32)CC1 [Example 7, N-(4-Fluorophenyl)-5-((R)-1-((1s,4S)-4-(6-fluoroquinolin-4-yl)cyclohexyl)ethyl)-1,3,4-thiadiazol-2-amine] | 543 nM
16 | COc1ccc(-c2nnc([C@H](C)[C@H]3CC[C@@H](c4ccnc5ccc(F)cc54)CC3)[nH]2)cc1 [Example 9] | 192 nM
17 | C[C@@H](Nc1nnc(-c2ccc(Cl)cc2)[nH]1)[C@H]1CC[C@@H](c2ccnc3ccc(F)cc32)CC1 [Example 40, 5-(4-Chlorophenyl)-N—((R)-1-((1s,4S)-4-(6-fluoroquinolin-4-yl)cyclohexyl)ethyl)-4H-1,2,4-triazol-3-amine] | 126 nM
18 | Cc1ccc(-c2nnc([C@H](C)[C@H]3CC[C@@H](c4ccnc5ccc(F)cc54)CC3)[nH]2)cc1 [Example 15, 6-fluoro-4-((1S,4s)-4-((R)-1-(5-p-tolyl-4H-1,2,4-triazol-3-yl)ethyl)cyclohexyl)quinoline] | 124 nM
19 | CCC(Nc1nnc(-c2ccc(OC)cc2)o1)[C@H]1CC[C@@H](c2ccnc3ccc(F)cc32)CC1 (mixture of isomers) [Example 48, N-(1-((1s,4s)-4-(6-Fluoroquinolin-4-yl)cyclohexyl)propyl)-5-(4-methoxyphenyl)-1,3,4-oxadiazol-2-amine] | 3.6 nM
20 | C[C@@H](c1ncc(-c2ccc(F)cc2)[nH]1)[C@H]1CC[C@@H](c2ccnc3ccc(F)cc32)CC1 [Example 47, 6-Fluoro-4-((1S,4s)-4-((R)-1-(5-(4-fluorophenyl)-1H-imidazol-2-yl)ethyl)cyclohexyl)quinoline] | 18.3 nM
21 | CCC(c1nnc(Nc2ccc(OC)cc2)[nH]1)C1CCC(c2ccnc3ccc(F)cc23)CC1 (single isomer, unassigned) [Example 56, 5-(1-(4-(6-Fluoroquinolin-4-yl)cyclohexyl)propyl)-N-(4-methoxyphenyl)-4H-1,2,4-triazol-3-amine] | 18.4 nM
22 | COc1ccc(-c2nnc(N[C@H](C)[C@H]3CC[C@@H](c4ccnc5ccc(F)cc54)CC3)o2)cc1 [Example 25, N—((R)-1-((1s,4S)-4-(6-Fluoroquinolin-4-yl)cyclohexyl)ethyl)-5-(4-methoxyphenyl)-1,3,4-oxadiazol-2-amine] | 9.6 nM
23 | CCC(c1nnc(-c2ccc(OC(C)C)cc2)o1)C1CCC(c2ccnc3ccc(F)cc23)CC1 (stereo not drawn) [Example 54, 2-(1-(4-(6-Fluoroquinolin-4-yl)cyclohexyl)propyl)-5-(4-isopropoxyphenyl)-1,3,4-oxadiazole] | 68.8 nM
24 | COc1ccc(-c2nnc(N[C@H](C)[C@H]3CC[C@@H](c4ccnc5ccc(F)cc54)CC3)[nH]2)cc1 [Example 42, N—((R)-1-((1s,4S)-4-(6-Fluoroquinolin-4-yl)cyclohexyl)ethyl)-5-(4-methoxyphenyl)-4H-1,2,4-triazol-3-amine] | 57.2 nM
